Experiment: Dynamic Interfacial Tension (DIFT) analysis, ascending canola oil drop in aqueous detergent phase
Format: physicochemical
Details: 100 ppm surfactant, 34 ppm Calcium/Magnesium water hardness (3:1), 22° C., pH 8-8.5
Experimental: The surfactant systems in Table 3 are analyzed via DIFT method. Ingredients listed are in ppm concentration as would be common in a detergent wash water solution. Analysis conditions are in water of 103 ppm Calcium/Magnesium water hardness level (3:1 Calcium:Magnesium), 21° C., pH 8-8.5. • Formula E contains a commercial branched Neodol® 67 AS surfactant. • Formula F contains 90A:10B AS of the present invention substituted for branched Neodol® 67 AS surfactant. • Formulas G and H are common detergent surfactant mixtures containing no branched alkyl sulfate surfactants.
The surfactant systems in Table 5 are analyzed via DIFT method. Ingredients listed are in ppm concentration as would be common in a detergent wash water solution. Analysis conditions are in water of 34 ppm Calcium/Magnesium water hardness level (3:1 Calcium:Magnesium), 22° C., pH 8-8.5.
Method: Dynamic Interfacial Tension Analysis. Dynamic Interfacial Tension (DIFT) analysis is performed on a Krüss® DVT30 Drop Volume Tensiometer (Krüss USA, Charlotte, N.C.). The instrument is configured to measure the interfacial tension (IFT) of an ascending oil drop in aqueous detergent (surfactant) phase. The oil used is canola oil (Crisco Pure Canola Oil manufactured by The J.M. Smucker Company). The aqueous detergent and oil phases are temperature controlled at 22° C. (+/−1° C.), via a recirculating water temperature controller attached to the tensiometer. A dynamic interfacial tension curve is generated by dispensing the oil drops into the aqueous detergent phase from an ascending capillary with an internal diameter of 0.2540 mm, over a range of flow rates and measuring the interfacial tension at each flow rate. Data is generated at oil dispensing flow rates of 500 uL/min to 1 uL/min with 2 flow rates per decade on a logarithmic scale (7 flow rates measured in this instance). Interfacial tension is measured on three oil drops per flow rate and then averaged. Interfacial tension is reported in units of mN/m. Surface age of the oil drops at each flow rate is also recorded and plots can be generated either of interfacial tension (y-axis) versus oil flow rate (x-axis) or interfacial tension (y-axis) versus oil drop surface age (x-axis). […] Example of analysis of a 100 ppm surfactant concentration, with water hardness (3:1 Ca:Mg) of 103 ppm, 22° C., pH 8: Density settings for 22° C. are set at 0.916 g/ml for Canola Oil and 0.998 g/ml for aqueous surfactant phase (assumed to be the same as water since dilute solution). To a 100 ml volumetric flask is added 1.00 mL of 1% (wt/wt) Surfactant solution in deionized water and the volumetric is then filled to the mark with […] 3:1 CaCl2:MgCl2 solution and mixed well. The solution is transferred to a beaker and the pH adjusted to 8 by addition of a few drops of 0.1N NaOH or […]. The solution is then loaded into the tensiometer measurement cell and analyzed. Total time from addition of hardness to surfactant and start of analysis is less than 5 minutes.

IFT @ 1 uL/min Oil Flowrate [mN/m]	IFT @ 10 uL/min Oil Flowrate [mN/m]	IFT @ 99 uL/min Oil Flowrate [mN/m]	Compound
0.17	0.88	4.83	CC(C)CCCC(C)CCCC(C)CCCOS(=O)(=O)[O-].[Na+] (stereo not drawn) [A AS, sodium salt of 4,8,12-trimethyltridecan-1-ol sulfate]
0.35	1.6	6.14	CCC(CCCC(C)CCCC(C)C)CCOS(=O)(=O)[O-].[Na+] (stereo not drawn) [B AS, sodium salt of 3-ethyl-7,11-dimethyldodecan-1-ol sulfate]

Reference: US20130072415A1, “DETERGENT COMPOSITIONS COMPRISING […] BLEND RATIOS of ISOPRENOID-BASED SURFACTANTS” (The Procter & Gamble Company, priority 2011, published 2013)
